Source: patent US11891359B2, “Prenylated psilocybin derivatives and methods of using” (ENVERIC B[…] INC., priority 2021, dated 2024)

Key:
5-HT2A receptor = biological target: T1, 5-HT2A receptor (Homo sapiens, UniProt P28223); test: [3H]ketanserin competition binding assay (Scintillation Proximity Assay) on membranes containing 5-HT2A; conditions: fixed 1 nM [3H]ketanserin; for competition binding curve result (binding / no binding): psilocin 30 pM to 10 μM, tryptophan 3 nM to 1 mM, FIGS. 14C, 14D
T1 construct: purchased PerkinElmer ES-313-M400UA
Text: Evaluation of drug binding is an essential step to characterization of all drug-target interactions (Fang 2012, Exp Opin Drug Discov 7:969). The binding affinity of a drug to a target is traditionally viewed as an acceptable surrogate of its in vivo efficacy (Núñez et al., 2012, Drug Disc Today 17: 10). Competition assays, also called displacement or modulation binding assays, are a common approach to measure activity of a ligand at a target receptor (Flanagan 2016, Methods Cell Biol 132: 191). In these assays, standard radioligands acting either as agonists or antagonists are ascribed to specific receptors. In the case of G protein-coupled receptor 5-HT2A, [^3H]ketanserin is a well-established antagonist used routinely in competition assays to evaluate competitive activity of novel drug candidates at the 5-HT2A receptor (Maguire et al., 2012, Methods Mol Biol 897: 31). Thus, to evaluate activity of novel psilocybin derivatives at the 5-HT2A receptor, competition assays using [^3H]ketanserin were employed as follows. SPA beads (RPNQ0010), [^3H] ketanserin (NET1233025UC), membranes containing 5-HT2A (ES-313-M400UA), and isoplate-96 microplate (6005040) were all purchased from PerkinElmer. Radioactive binding assays were carried out using Scintillation Proximity Assay (SPA). […] After incubation, the samples were read on a MicroBeta 2 Microplate Counter (Perkin Elmer). […] Equilibrium binding constants for ketanserin (Kd) were determined from saturation binding curves using the ‘one-site saturation binding analysis’ method of GraphPad PRISM software (Version 9.2.0). […] Ki values were calculated from the competition displacement data using the competitive binding analysis from GraphPad PRISM software. […] Specific binding in counts per minute (cpm) was calculated by subtracting non-specific binding from total binding. Specific binding (pmol/mg) was calculated from pmol of [^3H]ketanserin bound per mg of protein in the assay. The Kd was calculated by fitting the data with the one-site binding model of PRISM software (version 9.2.0). […]

5-HT1A receptor = biological target: T2, 5-HT1A receptor (Homo sapiens, UniProt P08908); test: cAMP-Glo assay in +5-HT1A cells (CHO-K1/5-HT1A/Gα15) with 4 μM forskolin; assay type: cell-based; conditions: for cAMP / luminescence response to varying dosage of test molecule: +5HT1A cell cultures, fixed 4 μM forskolin, FIGS. 14H-14L
T2 construct: host or cells: CHO-K1 (co-expressing Gα15)
T2 sequence (P08908 1-422): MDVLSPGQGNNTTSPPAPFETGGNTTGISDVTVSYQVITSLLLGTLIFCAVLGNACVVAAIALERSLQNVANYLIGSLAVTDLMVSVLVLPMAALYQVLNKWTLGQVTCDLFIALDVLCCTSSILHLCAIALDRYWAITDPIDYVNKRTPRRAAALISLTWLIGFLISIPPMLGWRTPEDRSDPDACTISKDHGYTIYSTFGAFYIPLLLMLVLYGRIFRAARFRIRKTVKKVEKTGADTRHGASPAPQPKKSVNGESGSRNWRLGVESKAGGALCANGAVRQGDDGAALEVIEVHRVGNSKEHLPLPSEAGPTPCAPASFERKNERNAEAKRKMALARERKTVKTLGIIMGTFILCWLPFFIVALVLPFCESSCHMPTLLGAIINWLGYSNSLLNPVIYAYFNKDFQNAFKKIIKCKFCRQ
Text: (§1) CHO-K1/Gα15 (GenScript, M00257) (−5-HT1A) and CHO-K1/5-HT1A/Gα15 (GenScript, M00330) (+5-HT1A) cells lines were used. Briefly, CHO-K1/Gα15 is a control cell line that constitutively expresses Gα15 which is a promiscuous Gq protein. This control cell line lacks any transgene encoding 5-HT1A receptors, but still responds to forskolin; thus, cAMP response to forskolin should be the same regardless of whether or not 5-HT1A agonists are present. Conversely, CHO-K1/5-HT1A/Gα15 cells stably express 5-HT1A receptor in the CHO-K1 host background. […] In+5-HT1A cells, Gα15 may be recruited in place of Gαi/o, which could theoretically dampen cAMP response (Rojas and Fiedler 2016, Front Cell Neurosci 10: 272). […] Cells were maintained in complete growth media as recommended by supplier (GenScript) which is constituted as follows: Ham's F12 Nutrient mix (HAM's F12, GIBCO #11765-047) with 10% fetal bovine serum (FBS) (Thermo Scientific #12483020), 200 μg/ml zeocin (Thermo Scientific #R25005) and/or 100 μg/ml hygromycin (Thermo Scientific #10687010). The cells were cultured in a humidified incubator with 37° C. and 5% CO2. Cells maintenance was carried out as recommended by the cell supplier. Briefly, vials with cells were removed from the liquid nitrogen and thawed quickly in 37° C. water bath. Just before the cells were completely thawed the vial's outside was decontaminated by 70% ethanol spray. The cell suspension was then retrieved from the vial and added to warm (37° C.) complete growth media, and centrifuged at 1,000 rpm for 5 minutes. The supernatant was discarded, and the cell pellet was then resuspended in another 10 ml of complete growth media, and added to the 10 cm cell culture dish (Greiner Bio-One #664160). The media was changed every third day until the cells were about 90% confluent. The ˜90% confluent cells were then split 10:1 for maintenance or used for experiment.
As 5-HT1A activation inhibits cAMP formation, the agonist activity of test molecules on 5-HT1A was measured via the reduction in the levels of cAMP produced due to application of 4 μM forskolin. The change in intracellular cAMP levels due to the treatment of novel molecules was measured using cAMP-Glo Assay kit (Promega #V1501). Briefly, +5-HT1A cells were seeded on 1-6 columns and base −5-HT1A cells were seeded on columns 7-12 of the white walled clear bottom 96-well plate (Corning, #3903). Both cells were seeded at the density of 30,000 cells/well in 100 μl complete growth media and cultured 24 hrs in humidified incubator at 37° C. and 5% CO2. On the experiment day, the media of cells was replaced with serum/antibiotic free culture media. […] Reduced ATP caused reduced conversion of luciferin to oxyluciferin, conferring diminished luminescence as the result of 5-HT1A activation. […]

[1] = tested on: CHO-K1/Gα15 (−5-HT1A) cells; test: cAMP-Glo assay in −5-HT1A control cells (CHO-K1/Gα15) with 4 μM forskolin; assay type: cell-based; conditions: for trend of % cAMP levels with decreasing dosage of test molecule: −5HT1A cell cultures, fixed 4 μM forskolin
Text: as §1, with “The supernatant was discarded, and the cell pellet was then resuspended in another 10 ml of complete growth media, and added to the 10 cm cell culture dish (Greiner Bio-One #664160). The media was changed every third day until the cells were about 90% confluent. The ˜90% confluent cells were then split 10:1 for maintenance or used for experiment.” left out
As 5-HT1A activation inhibits cAMP formation, the agonist activity of test molecules on 5-HT1A was measured via the reduction in the levels of cAMP produced due to application of 4 μM forskolin. The change in intracellular cAMP levels due to the treatment of novel molecules was measured using cAMP-Glo Assay kit (Promega #V1501). […] Reduced ATP caused reduced conversion of luciferin to oxyluciferin, conferring diminished luminescence as the result of 5-HT1A activation. […]

T1 sequence (P28223 whole entry): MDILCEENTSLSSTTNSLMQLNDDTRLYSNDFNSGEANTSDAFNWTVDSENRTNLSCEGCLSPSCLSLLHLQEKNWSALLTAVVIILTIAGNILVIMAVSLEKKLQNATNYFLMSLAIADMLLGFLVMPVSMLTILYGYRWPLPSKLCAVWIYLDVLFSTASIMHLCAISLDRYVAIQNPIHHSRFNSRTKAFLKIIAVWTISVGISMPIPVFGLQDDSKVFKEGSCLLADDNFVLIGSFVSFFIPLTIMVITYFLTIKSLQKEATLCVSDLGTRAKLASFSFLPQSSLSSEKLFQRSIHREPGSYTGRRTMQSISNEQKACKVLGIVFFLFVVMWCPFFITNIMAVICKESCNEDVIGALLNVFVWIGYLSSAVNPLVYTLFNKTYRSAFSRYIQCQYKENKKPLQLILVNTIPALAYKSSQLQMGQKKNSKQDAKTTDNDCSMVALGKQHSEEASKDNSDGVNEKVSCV

## N[C@@H](Cc1c[nH]c2ccccc12)C(=O)O [tryptophan]
5-HT2A receptor
  competition binding curve result (binding / no binding): no binding

## CN(C)CCc1c[nH]c2ccccc12 [DMT, reference compound]
5-HT1A receptor
  cAMP / luminescence response to varying dosage of test molecule: 5-HT1A activity

## CN(C)CCc1c[nH]c2cccc(O)c12 [psilocin]
5-HT2A receptor
  competition binding curve result (binding / no binding): binding

## NCCc1c[nH]c2ccc(O)cc12 [serotonin, reference compound]
[1]
  trend of % cAMP levels with decreasing dosage of test molecule: not observed
5-HT1A receptor
  cAMP / luminescence response to varying dosage of test molecule: 5-HT1A binding activity

## CC(=O)NCCc1c[nH]c2cc(CC=C(C)C)ccc12 [compound (IV)]
[1]; −5-HT1A cell cultures, fixed 4 μM forskolin and 10 uM serotonin, FIGS. 14M, 14N
  modulation of the impact of serotonin on cAMP / luminescence: not notable
[1]
  trend of % cAMP levels with decreasing dosage of test molecule: not observed
5-HT2A receptor; unlabeled test compound 3 nM to 1 mM, competition not complete, FIGS. 14E, 14F
  specific binding of [3H]ketanserin in competition with test compound: ~50%
5-HT1A receptor; +5-HT1A cell cultures, fixed 4 μM forskolin and 10 uM serotonin, FIGS. 14M, 14N
  modulation of the impact of serotonin on cAMP / luminescence: modulated by the presence of compound (IV) in a concentration-dependent manner
5-HT1A receptor
  cAMP / luminescence response to varying dosage of test molecule: 5-HT1A modulation activity
